# System: C9ORF72 patient iMNs
# Test: induced motor neuron (iMN) survival assay, glutamate treatment
# Format: cell-based, human
# Conditions: excess glutamate (10 μM, 12 hrs); longitudinal tracking, log-rank
# Experimental: For the glutamate treatment conditions, 10 μM glutamate was added to the culture medium on day 17 and removed after 12 hrs. Cells were then maintained in N3 medium with neurotrophic factors without RepSox. For the glutamate treatment conditions with glutamate receptor antagonists, cultures were co-treated with 10 μM MK801 and CNQX, and 2 μM Nimodipine during the 12 hr glutamate treatment. The antagonists were maintained for the remainder of the experiment. For the neurotrophic factor withdrawal condition, BDNF, GDNF, and CNTF were removed from the culture medium starting at day 17. Longitudinal tracking was performed by imaging neuronal cultures in a Nikon Biostation CT or Molecular Devices ImageExpress once every 24 hrs starting at day 17. Tracking of neuronal survival was performed using SVcell 2.0 (DRVision Technologies).
compound,measurement,value
Cc1cccc(/C=N/Nc2cc(N3CCOCC3)nc(OCCc3ccccn3)n2)c1 [apilimod],survival of C9ORF72 patient iMNs,increased the survival

# Reference: patent US10758545B2, “Methods to treat neurological diseases” (UNIVERSITY OF SOUTHERN CALIFORNIA, priority 2015, dated 2020)
